From patent publication US20040019118A1, “NMDA receptor antagonists and their use in inhibiting abnormal hyperphosphorylation of microtubule associated protein tau” (priority 2002, published 2004)

Tests used:
[1] = tested on: MAPK; test: MAPK activity in extracts of treated hippocampal slice cultures; type: cell-based, rat; conditions: after 0.3 mM glutamate; 10 μM Memantine or 15 μM MK801
Description: The rats were anesthetized with ketamine (100 mg/kg body weight) and decapitated and the hippocampi were dissected out and sliced into 400 um coronal sections by a McIllwain tissue chopper. Select slices with uninterrupted bright transparent neuronal layers were plated, 1-3 slices/filter, onto Millicell CM filters (Millipore, Bedford, Mass.). […] After 7 DIV, the cultures were maintained in physiological potassium containing 5% horse serum medium at 35° C. for at least 20 days before any treatment was applied. When the slices were treated, the reagents were applied into the culture medium. At different time points, the slices collected with a brush were washed twice in homogenizing buffer (50 mM HEPES, pH 7.0, 10 mM β-merceptoethanol [BME], 1 mM EDTA, 1 mM EGTA, 0.1 mM phenylmethyl sulfonyl fluoride [PMSF], 2.0 mM benzamidine and 2.0 μg/ml each of aprotinin, leupeptin and pepstatin) and homogenized at 4° C. using a Teflon-glass homogenizer. The homogenate was then divided into two parts, one was centrifuged at 16000×g for 15 min and the supernatant was used to assay activities of PP-2A and PP-1. The rest of the homogenate was diluted 1:1 with a phosphatase inhibitor cocktail (20 mM β-glycerophosphate, 2 mM Na3VO4 and 100 mM NaF, pH 7.0) and either used for Western blots or centrifuged at 16000×g for 15 min and the resulting supernatant used to determine the kinase activities.
Immobilized protein G (Pierce, Rockford, Ill.), 20 μl, was mixed in 50 mM Tris, pH 7.4, 150 mM NACl, 10 mM NaF, 1.0 mM Na3VO4, 2.0 mM EGTA, 1 mM PMSF, 5 μg/ml leupeptin, 5 μg/ml aprotinin, 2 μg/ml pepstatin, 25 μg/ml phosphoramidon. After incubation at 4° C. overnight, the mixture was centrifuged and the beads were washed three times. The beads were then resuspended in 50 mM Tris, pH 7.4, containing 10 mM MgCl2. MAPK substrate peptide (UBI, Lake Placid, N.Y.) was employed for the MAPK assay. […]

[2] = target: T1, PP-2A (Homo sapiens, UniProt P67775); design: treatment of the SY5Y human neuroblastoma in culture with 10 nM OA for 24 h; host or cells: SY5Y human neuroblastoma cells (endogenous); conditions: 10 nM OA, 24 h; cited from earlier work
T1 sequence (P67775 whole entry): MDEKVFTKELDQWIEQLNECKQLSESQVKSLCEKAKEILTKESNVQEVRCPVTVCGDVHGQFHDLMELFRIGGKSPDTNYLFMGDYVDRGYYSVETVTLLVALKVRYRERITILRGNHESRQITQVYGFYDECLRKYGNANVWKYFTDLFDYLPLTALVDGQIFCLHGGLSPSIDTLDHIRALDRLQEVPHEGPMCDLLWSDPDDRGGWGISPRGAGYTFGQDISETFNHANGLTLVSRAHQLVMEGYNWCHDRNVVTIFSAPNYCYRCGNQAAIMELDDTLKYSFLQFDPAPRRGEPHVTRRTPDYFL

[3] = target: T1, PP-2A; conditions: read-out: in vitro IC50; cited from earlier work
[4] = tested on: PP-1; conditions: 10 nM OA, 24 h; cited from earlier work

In the case of `CC12CC3CC(C)(C1)CC(N)(C3)C2` [Memantine, 1-amino-3,5-dimethyl adamantane], the “effect on MAP kinase activity” value [1] is reported as “no effect”.

For `C=C1[C@@H](O)[C@@H]2O[C@]3(CC[C@H](/C=C/[C@@H](C)[C@@H]4CC(C)=C[C@@]5(O[C@H](C[C@@](C)(O)C(=O)O)CC[C@H]5O)O4)O3)CC[C@H]2O[C@@H]1[C@@H](O)C[C@H](C)[C@H]1O[C@@]2(CCCCO2)CC[C@H]1C` [OA, Okadaic Acid], the “inhibition of PP-2A” value [2] is given as “complete inhibition”, the IC50 [3] is given as roughly 1 nM and the “inhibition of PP-1” value [4] is given as roughly 65%.
